In PubChem BioAssay (NCI):
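Five concentrations, 48 hours, 96-well plates. At the TGI there is no net growth.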

Experiments:
Experiment in all cases: NCI anticancer screen, dose series, 48 h
HCT-116 colon = system: HCT-116 colon
SK-MEL-2 melanoma = system: SK-MEL-2 melanoma
UO-31 renal = system: UO-31 renal
T-47D breast = system: T-47D breast
UACC-257 melanoma = system: UACC-257 melanoma
IGROV1 ovarian = system: IGROV1 ovarian
NCI-H23 lung = system: NCI-H23 lung
KM12 colon = system: KM12 colon
LOX IMVI melanoma = system: LOX IMVI melanoma
M14 melanoma = system: M14 melanoma
BT-549 breast = system: BT-549 breast
SK-MEL-28 melanoma = system: SK-MEL-28 melanoma
RXF 393 renal = system: RXF 393 renal

Row | Compound | TGI (HCT-116 colon) | TGI (SK-MEL-2 melanoma) | TGI (UO-31 renal) | TGI (T-47D breast) | TGI (UACC-257 melanoma) | TGI (IGROV1 ovarian) | TGI (NCI-H23 lung) | TGI (KM12 colon) | TGI (LOX IMVI melanoma) | TGI (M14 melanoma) | TGI (BT-549 breast) | TGI (SK-MEL-28 melanoma) | TGI (RXF 393 renal)
1 | NCC(=O)Nc1ccccc1 | > 100 µM | > 100 µM | > 100 µM | > 100 µM | > 100 µM | > 100 µM | > 100 µM | > 100 µM | > 100 µM | > 100 µM | > 100 µM | > 100 µM | > 100 µM
2 | Nc1ncnc2c1ncn2[C@H]1C=C[C@@H](NO)C1 | > 100 µM | > 100 µM | > 100 µM | > 100 µM | > 100 µM | > 100 µM | > 100 µM | > 100 µM | > 100 µM | > 100 µM | > 100 µM | > 100 µM | > 100 µM
3 | C#C[C@]1(O)CC[C@H]2[C@@H]3CCC4=C/C(=N\OCCN5CCCCC5)CC[C@]4(C)[C@H]3CC[C@@]21C | 22.2 µM | 8.76 µM | 16 µM | 19.3 µM | 12.8 µM | 19.1 µM | 17.5 µM | 12.3 µM | 16.5 µM | 10.2 µM | 17.6 µM | 27.4 µM | 11.3 µM
4 | O=C(O)c1nc2cc(Cl)ccc2[nH]c1=O | > 100 µM | > 100 µM | > 100 µM | > 100 µM | > 100 µM | > 100 µM | > 100 µM | > 100 µM | > 100 µM | > 100 µM | > 100 µM | > 100 µM | > 100 µM
5 | CN(C)Cc1cc(Cl)c(O)c(CN(C)C)c1 | > 100 µM | > 100 µM | > 100 µM | > 100 µM | > 100 µM | > 100 µM | > 100 µM | > 100 µM | > 100 µM | > 100 µM | > 100 µM | > 100 µM | > 100 µM
6 | Cc1ncn(-c2ccccc2O)c1C | > 100 µM | > 100 µM | > 100 µM | > 100 µM | > 100 µM | > 100 µM | > 100 µM | > 100 µM | > 100 µM | > 100 µM | > 100 µM | > 100 µM | > 100 µM
7 | S=C(NCc1ccccc1)Nc1sc(=NCc2ccccc2)nc2sc3c(c12)CCN(N1CCc2c(sc4nc(=NCc5ccccc5)sc(NC(=S)NCc5ccccc5)c24)C1)C3 | > 54.2 µM | > 81.8 µM | > 60.8 µM | > 61.3 µM | > 78.4 µM | > 100 µM | > 83.4 µM | > 67.5 µM | > 100 µM | > 65.4 µM | > 85.6 µM | > 79 µM | > 65.9 µM
